The results in this text go back to ChEMBL document CHEMBL4813950, “Comparing the efficacy and selectivity of Ck2 inhibitors. A phosphoproteomics approach” (Eur J Med Chem, 2021).

Active and inactive are the calls of the source. The calls are words filed in the database; no cut-off is given here.

Common to all, as to type: cell-based
Test [1] has as its target T1, Casein kinase 2 (Mus musculus) (UniProt Q60737+P67871+O54833+Q8CH19). The test can be described thus: Inhibition of CK2 in mouse C2C12 cells assessed as reduction in Akt phosphorylation at S129 residues at 1 to 4 uM by Western blot analysis. To be noted: dose 1-4 µM.
Test [2] has as its target Nucleolar RNA helicase 2 (Mus musculus) (UniProt Q9JIK5). The test can be described thus: Inhibition of Ddx21 in mouse C2C12 cells assessed as reduction in phospho-sites occupancy at 4 uM after 5 hrs by SILAC based LC-MS/MS analysis relative to control.
In test [3] the target is T1, Casein kinase 2 (Mus musculus). The test can be described thus: Inhibition of CK2 in mouse C2C12 cells assessed as reduction in CK2 substrates phosphorylation at 1 to 4 uM by Western blot analysis. To be noted: dose 1-4 µM.
For test [4], the target named is Protein transport protein Sec31A (Mus musculus) (UniProt Q3UPL0). The test can be described thus: Inhibition of Sec31a in mouse C2C12 cells assessed as reduction in phospho-sites occupancy at 4 uM after 5 hrs by SILAC based LC-MS/MS analysis relative to control.
Test [5] has as its target WASH complex subunit 2 (Mus musculus) (UniProt Q6PGL7). The test can be described thus: Inhibition of Washc2 in mouse C2C12 cells assessed as reduction in phospho-sites occupancy at 4 uM after 5 hrs by SILAC based LC-MS/MS analysis relative to control.
In test [6] the target is Dihydropyrimidinase-related protein 3 (Mus musculus) (UniProt Q62188). The test can be described thus: Inhibition of Dihydropyrimidinase-related protein 3 in mouse C2C12 cells assessed as reduction in phospho-sites occupancy at 4 uM after 5 hrs by SILAC based LC-MS/MS analysis relative to control.
Test [7] addresses Transcriptional regulator ATRX (Mus musculus) (UniProt Q61687). Briefly: Inhibition of ATRX in mouse C2C12 cells assessed as reduction in phospho-sites occupancy at 4 uM after 5 hrs by SILAC based LC-MS/MS analysis relative to control.
Test [8] addresses Cyclin-dependent kinase 4 (Mus musculus) (UniProt P30285). Briefly: Inhibition of Cdk4 in mouse C2C12 cells assessed as reduction in phospho-sites occupancy at 4 uM after 5 hrs by SILAC based LC-MS/MS analysis relative to control.
The target in test [9] is Desmoyokin (Mus musculus) (UniProt Q61484). The test can be described thus: Inhibition of AHNAK in mouse C2C12 cells assessed as reduction in phospho-sites occupancy at 4 uM after 5 hrs by SILAC based LC-MS/MS analysis relative to control.
For test [10], the target named is Centrosomal protein of 170 kDa (Mus musculus) (UniProt Q6A065). The test can be described thus: Inhibition of Cep170 in mouse C2C12 cells assessed as reduction in phospho-sites occupancy at 4 uM after 5 hrs by SILAC based LC-MS/MS analysis relative to control.
For test [11], the target named is E3 ubiquitin-protein ligase NEDD4 (Mus musculus) (UniProt P46935). Briefly: Inhibition of Nedd4 in mouse C2C12 cells assessed as reduction in phospho-sites occupancy at 4 uM after 5 hrs by SILAC based LC-MS/MS analysis relative to control.
A further test deals with Kinectin (Mus musculus) (UniProt Q61595). Briefly: Inhibition of Ktn1 in mouse C2C12 cells assessed as reduction in phospho-sites occupancy at 4 uM after 5 hrs by SILAC based LC-MS/MS analysis relative to control.
The target of test [12] is Pleckstrin homology-like domain family B member 1 (Mus musculus) (UniProt Q6PDH0). The test can be described thus: Inhibition of Phldb1 in mouse C2C12 cells assessed as reduction in phospho-sites occupancy at 4 uM after 5 hrs by SILAC based LC-MS/MS analysis relative to control.
Test [13] deals with Lamina-associated polypeptide 2, isoforms beta/delta/epsilon/gamma (Mus musculus) (UniProt Q61029). The test can be described thus: Inhibition of LAP2B epsilon in mouse C2C12 cells assessed as reduction in phospho-sites occupancy at 4 uM after 5 hrs by SILAC based LC-MS/MS analysis relative to control.
The target in test [14] is T1, Casein kinase 2 (Mus musculus). Briefly: Inhibition of CK2 in mouse C2C12 cells assessed as reduction in CDC37 phosphorylation at S13 residues at 1 to 4 uM by Western blot analysis. To be noted: dose 1-4 µM.
Test [15] has as its target 1-phosphatidylinositol 4,5-bisphosphate phosphodiesterase delta-3 (Mus musculus) (UniProt Q8K2J0). Briefly: Inhibition of Plcd3 in mouse C2C12 cells assessed as reduction in phospho-sites occupancy at 4 uM after 5 hrs by SILAC based LC-MS/MS analysis relative to control.
The target of test [16] is Autophagy-related protein 9A (Mus musculus) (UniProt Q68FE2). The test can be described thus: Inhibition of Atg9a in mouse C2C12 cells assessed as reduction in phospho-sites occupancy at 4 uM after 5 hrs by SILAC based LC-MS/MS analysis relative to control.
For test [17], the target named is Serine/arginine repetitive matrix protein 1 (Mus musculus) (UniProt Q52KI8). Briefly: Inhibition of Srrm1 in mouse C2C12 cells assessed as reduction in phospho-sites occupancy at 4 uM after 5 hrs by SILAC based LC-MS/MS analysis relative to control.
Test [18] has as its target Fermitin family homolog 2 (Mus musculus) (UniProt Q8CIB5). Briefly: Inhibition of Fermt2 in mouse C2C12 cells assessed as reduction in phospho-sites occupancy at 4 uM after 5 hrs by SILAC based LC-MS/MS analysis relative to control.
Test [19] deals with EH domain-containing protein 2 (Mus musculus) (UniProt Q8BH64). Briefly: Inhibition of Ehd2 in mouse C2C12 cells assessed as reduction in phospho-sites occupancy at 4 uM after 5 hrs by SILAC based LC-MS/MS analysis relative to control.
Test [20] deals with La-related protein 1 (Mus musculus) (UniProt Q6ZQ58). Briefly: Inhibition of Larp1 in mouse C2C12 cells assessed as reduction in phospho-sites occupancy at 4 uM after 5 hrs by SILAC based LC-MS/MS analysis relative to control.
For test [21], the target named is DNA replication licensing factor MCM2 (Mus musculus) (UniProt P97310). The test can be described thus: Inhibition of Mcm2 in mouse C2C12 cells assessed as reduction in phospho-sites occupancy at 4 uM after 5 hrs by SILAC based LC-MS/MS analysis relative to control.
The target in test [22] is Rho GTPase-activating protein 35 (Mus musculus) (UniProt Q91YM2). The test can be described thus: Inhibition of Arhgap35 in mouse C2C12 cells assessed as reduction in phospho-sites occupancy at 4 uM after 5 hrs by SILAC based LC-MS/MS analysis relative to control.
Test [23] deals with tRNA (guanine(26)-N(2))-dimethyltransferase (Mus musculus) (UniProt Q3TX08). The test can be described thus: Inhibition of Trmt1 in mouse C2C12 cells assessed as reduction in phospho-sites occupancy at 4 uM after 5 hrs by SILAC based LC-MS/MS analysis relative to control.

For the compound `O=C(O)c1ccc2c(c1)nc(Nc1cccc(Cl)c1)c1ccncc12`, the inhibition entry in test [1], in test [3] and in test [14] was “Active” in each case. For the same compound, the fold change (FC) is 1.85 in test [2]; 2.28 in [4]; 3.41 in test [5]; 2.57 in [6]; 2.22 in test [7]; 2.6 in test [8]. In addition, the fold change (FC) in [9] turned out to be 1.54; in test [10] it was 1.56; in [11], 3.66; on Kinectin (Mus musculus), 1.54; in test [12] it was 2.12; in test [13] it was 1.82. The fold change (FC) in test [15] was 2.53; in test [16] it was 1.5; in test [17] it was 1.7; in test [18], 2.53; in test [19] it was 1.65; in test [20], 1.84. The fold change (FC) is 1.83 in test [21], 1.95 in test [22] and 1.54 in test [23].
